“Also recorded” adds a separate entry of the source. Where two headings read alike, the source gives them in different places.
How the values were obtained:
focal seizures = details: cited from earlier work
[1] = system: pentylenetetrazol (PTZ)-induced ictal brain activity; assay: Modulation of PTZ-induced seizures, BOLD fMRI; format: in vivo, male Wistar rats; details: positive control, Wistar rats
Experimental: Functional MRI (fMRI) was performed using a high-field preclinical MRI system in anesthetized male Wistar rats in order to determine the modulation of pentylenetetrazol (PTZ)-induced ictal brain activity by chronic treatment with test compound (TC). […] Vehicle and 3 mg/kg Alprazolam served as controls (see, Table 11). Seizures were induced with PTZ in each experimental group. A schematic of the study design can be seen in FIG. 6. Various physiological parameters were also measured throughout the experiment including body weight, CO2 levels, blood pH, and heart rate. […] Vehicle and 3 mg/kg Alprazolam served as controls (see, Table 12).

EAE = assay: Experimental autoimmune encephalomyelitis (EAE) model of MS; format: in vivo; details: EAE in C57BL/6 mice; 1, 2, 4 mg/kg oral once daily, Day 14 to Day 34
Experimental: EAE is induced in C57BL/6 mice by immunization with MOG35-55 or MOG1-12s in CFA emulsion followed by administration of pertussis toxin (PTX) in PBS. […] Fingolimod (FTY720, Gilenya) is the most commonly used positive control in this model.
Vehicle was 1.6% DMSO in water. […] These were frozen at −20° C. Every 3 to 4 days, one aliquot was thawed and diluted with water to create a fine suspension at 0.8 mg/mL (for 4 mg/kg dosing). Final DMSO concentration was 1.6%. […] FTY720 stock solution (30 mg/mL in ethanol) was prepared for all ongoing studies. Daily, the FTY720 stock solution was diluted with water to the final dosing concentration of 0.6 mg/mL.
EAE was induced on Day 0 by myelin oligodendrocyte glycoprotein (MOG35-55)/complete Freund's adjuvant (CFA) immunization, followed by pertussis toxin (PTX) injections on Days O and 1. Treatment was therapeutic, starting on Day 14. […] Treatment continued through Day 34. Mice were observed through the end of the study, Day 35.
Clinical scores were assessed as follows: 1=limp tail, 2=partial hind leg paralysis, 3=complete hind leg paralysis, 4=complete hindleg and partial front leg paralysis; 5=moribund.

spasms = assay: Two-stage model of infantile spasms (NMDA-induced); format: in vivo, Sprague-Dawley rats; details: spasms triggered on P15, rats
Excerpt: A two-stage model of infantile spasms was developed (FIG. 19A). Pregnant Sprague-Dawley rats receive two injections of betamethasone on gestational (G) day 15. Offspring of those pregnancies are used for experiments during infancy, postnatal days (P) 10-15. Spasms are induced by i.p. injection of N-methyl-D-aspartic acid (NMDA), which is graded depending on the postnatal age of the subjects.
Days of dosing were P10, P11, P12, P13, P14 and P15.

human CD4+ T cells = assay: Human CD4+ T cells activated under Th17 skewing conditions, in vitro; format: cell-based; details: data not shown

Molecule: NC(=O)N1c2ccccc2C[C@H](O)c2ccccc21 [APTIOM, Eslicarbazepine]
- Placebo-adjusted >50% Focal Seizure Reduction (focal seizures; 1200 mg): 20%
- Placebo-adjusted Median Reduction in Focal Seizure Frequency (focal seizures; 2000 mg): 14-24%

Molecule: CN1C(=O)CN=C(c2ccccc2)c2cc(Cl)ccc21 [Diazepam]
- PTZ-induced brain activity (BOLD fMRI) ([1]; dose not given): effectively cancelled PTZ-induced brain activity

Molecule: ivermectin
- limb paralysis (clinical score) (EAE): significantly downregulates
- occurrence of spasms in comparison to controls (vehicle) (spasms; 2 mg/kg i.p. daily P10-P15): significantly suppressed occurrence of spasms; also recorded: significantly fewer spasms
- occurrence of spasms in comparison to controls (vehicle) (spasms; 4 mg/kg i.p. daily P10-P15): significantly suppressed occurrence of spasms; also recorded: significantly fewer spasms
- FoxP3 mRNA levels (human CD4+ T cells): up-regulation
- increase in the percentage of Foxp3+ T cells (human CD4+ T cells): 50%

Molecule: CC[C@@H](C(N)=O)N1CCCC1=O [KEPPRA, Leviteracetam]
- Placebo-adjusted >50% Focal Seizure Reduction (focal seizures; 3000 mg): 29%
- Placebo-adjusted Median Reduction in Focal Seizure Frequency (focal seizures; 3000 mg): 23-31%

Molecule: Cc1cc(N2CCc3cc(F)ccc3C2)cc(C)c1NC(=O)CC(C)(C)C [XEN1101]
- Placebo-adjusted >50% Focal Seizure Reduction (focal seizures; 25 mg): 40%
- Placebo-adjusted Median Reduction in Focal Seizure Frequency (focal seizures; 25 mg): 35%

Molecule: CCC[C@@H]1CC(=O)N([C@@H](CC)C(N)=O)C1 [BRIVIACT, Brivaracetam]
- Placebo-adjusted >50% Focal Seizure Reduction (focal seizures; 200 mg): 18%
- Placebo-adjusted Median Reduction in Focal Seizure Frequency (focal seizures; 200 mg): 26%

Molecule: Cc1nnc2n1-c1ccc(Cl)cc1C(c1ccccc1)=NC2 [Alprazolam]
- PTZ-induced brain activity (BOLD fMRI) ([1]; 3 mg/kg i.p., 1 dose, 3 mg/kg): effectively cancelled PTZ-induced brain activity; also recorded: Vehicle vs. Alprazolam in all

Molecule: COC[C@@H](NC(C)=O)C(=O)NCc1ccccc1 [VIMPAT, Lacosamide]
- Placebo-adjusted >50% Focal Seizure Reduction (focal seizures; 400 mg): 17%
- Placebo-adjusted Median Reduction in Focal Seizure Frequency (focal seizures; 400 mg): 15-29%

Molecule: NC(=O)O[C@@H](Cn1ncnn1)c1ccccc1Cl [XCOPRI, Cenobamate]
- Placebo-adjusted >50% Focal Seizure Reduction (focal seizures; 400 mg): 39%
- Placebo-adjusted Median Reduction in Focal Seizure Frequency (focal seizures; 4200 mg): 31%

Source: patent publication US20250222017A1, “METHODS OF USING AVERMECTIN COMPOSITIONS FOR THE TREATMENT OF NEUROLOGICAL DISORDERS AND DOSING REGIMENS” (priority 2022, published 2025)
